Each structure is given as a SMILES string. Calls of active or inactive are those of the source.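 The calls were made as follows: active = caspase luminescence falls with dose and the half-maximal concentration AC50 from the fitted curve is at or below a set limit; inconclusive = flat fit at 30 to 70% signal loss, or invalid fit; inactive = AC50 above the limit, or signal rises instead.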 Some results are limits rather than exact numbers.

The assay deals with INS-1E cytokine-induced caspase-3/7, Caspase-Glo luminescence, 48 h. Put plainly: suppression of cytokine-driven beta-cell apoptosis – INS-1E rat cells, luminescence, orthogonal assay for beta-cell apoptosis protection project, dose response (AID 463206).
With `COc1ccc(O)c(/C=N/Nc2nc(Nc3ccccc3)nc(-n3nc(C)cc3C)n2)c1`, the AC50 was > 26 µM (inactive). Under `Cc1ccc(OCCN2CCN(c3ncnc4sc(C)c(C)c34)CC2)cc1` stands > 26 µM (inactive); under `O=C(N/N=C(\c1ccccc1)c1cccnc1)c1cccc(F)c1`, > 26 µM (inactive). The figure for `COc1cccc(N=Nc2ccc3cccnc3c2O)c1` is > 26 µM (inactive). Under `COc1ccc(-n2c(-c3ccc(Cl)cc3)c[n+]3c2CCCCC3)cc1` stands > 26 µM (inactive). `CCCCn1c(/C=N/Nc2nc3ccccc3[nH]2)nc2ccccc21`: the AC50 is > 26 µM (inactive).

For `O=C(NC(c1ccc(Cl)cc1)c1cc(Cl)c2cccnc2c1O)c1cccnc1` (centres undefined), the AC50 is > 26 µM (inactive). Under `CC(C)Cn1c(SCC(=O)N2CCc3ccccc3C2)nc2cc(Cl)ccc2c1=O` stands > 26 µM (inactive). As for `Cn1c(/C=C/c2ccc([N+](=O)[O-])o2)nc2ccccc2c1=O`, the AC50 was > 26 µM (inactive). Regarding `COc1ccc(C(C(=O)NC2CCCCC2)N(C(=O)CCl)c2cccc(Cl)c2)cc1` (centres undefined), the AC50 was > 26 µM (inactive).

In the case of `COc1ccc(CNCCC(c2ccccc2)c2ccc3c(c2)OCO3)cc1` (centres undefined), the AC50 is > 26 µM (inactive). Under `O=C(NCc1nc2ccccc2[nH]1)C1=C[C@@H](C2CCCCC2)C[C@@H](OCc2ccc(CO)cc2)O1` stands > 26 µM (inactive); under `CN1/C(=C\C(=O)C[n+]2ccc(C(=O)c3ccccc3)cc2)C(C)(C)c2ccccc21`, > 26 µM (inactive). Under `CC(Nc1ncnc2ccccc12)c1ccccc1` (centres undefined) stands > 26 µM (inactive). As for `Cc1ccccc1Nc1c(-c2ccccn2)nc2c(C)cccn12`, the AC50 is > 26 µM (inactive). For `O=C(Nc1ccc(Cl)cc1)Nc1nnc(-c2ccncc2)s1`, the AC50 is > 26 µM (inactive).

As for `CCOc1ccc2nc(NC(=O)c3cccc(-c4cc5ccccc5oc4=O)c3)sc2c1`, the AC50 is > 26 µM (inactive).

For `CN(CC1CCCO1)S(=O)(=O)c1ccc(C(=O)Nc2nc(-c3ccccn3)cs2)cc1` (centres undefined), the AC50 was > 26 µM (inactive).

For the compound `N=c1c2c(-c3ccccc3)c(-c3ccccc3)n(Cc3ccco3)c2ncn1Cc1ccccc1`, the AC50 is > 26 µM (inactive). The figure for `Clc1ccc2nnnc(-c3ccccc3)c2c1` is > 26 µM (inactive); for `CCCCOc1ccc(C(=O)NNC(=S)NC(=O)CC)cc1` it is > 26 µM (inactive). The figure for `COc1ccc(/C(C)=N/NC(=O)c2cccc(S(=O)(=O)N3CCCC3)c2)c(O)c1` is > 26 µM (inactive); for `CC(=O)Cc1cc(O)c2ccccc2c1OC(=O)c1ccc(Br)cc1` it is > 26 µM (inactive); for `COc1ccc(C(=O)c2c(C(F)(F)F)oc3c2C(=O)c2ccccc2C3=O)cc1` it is > 26 µM (inactive). Under `COc1ccc(Cc2nnc(N/N=C/c3ccccc3O)[nH]c2=O)cc1OC` stands > 26 µM (inactive); under `Cn1ncnc2c(=O)n(C)c(=O)nc1-2`, > 26 µM (inactive). Regarding `CCCCC[n+]1ccn(C2=C([O-])c3ccccc3C(=O)/C2=N\S(=O)(=O)c2ccc(Cl)cc2)c1`, the AC50 is > 26 µM (inactive).

For the compound `CCOc1cccc(/C=N/NC(=O)c2ccc3c(c2)OCCO3)c1O`, the AC50 is > 26 µM (inactive).

As for `CCN(Cc1ccccc1)C(c1ccc(C(F)(F)F)cc1)c1nnnn1C(C)(C)C` (centres undefined), the AC50 is > 26 µM (inactive). Under `C=CCn1c(SCC(=O)c2[nH]c(C)c(C(=O)OCC)c2C)nc2scc(-c3ccc(OC)c(OC)c3)c2c1=O` stands > 12 µM (inactive); under `O=C(NNc1ccccc1Br)C(O)(c1cccc(C(F)(F)F)c1)c1cccc(C(F)(F)F)c1`, > 26 µM (inactive). Under `C[C@H](CO)N1C[C@H](C)[C@@H](CN(C)C(=O)NC2CCCCC2)Oc2c(NC(=O)Nc3ccc(C(F)(F)F)cc3)cccc2C1=O` stands > 26 µM (inactive); under `CC(CNC(=O)c1ccc(OC2CCN(Cc3ccccn3)CC2)cc1)Oc1cccnc1` (centres undefined), > 26 µM (inactive); under `O=C(Cc1cccs1)N/N=C\c1ccc([N+](=O)[O-])s1`, > 26 µM (inactive). `CCCCCCCC[n+]1c(C)n(-c2ccccc2)c2ccc(NC(C)=O)cc21`: the AC50 is > 26 µM (inactive).

Regarding `O=[N+]([O-])c1ccc(S(=O)(=O)c2ccccc2)nc1`, the AC50 was > 26 µM (inactive).

As for `CCOC(=O)N1CCN(S(=O)(=O)c2ccc(C(=O)NNc3nc4c(C)cc(C)cc4s3)cc2)CC1`, the AC50 was > 26 µM (inactive). The figure for `CCN(CC)c1ccc(/C=N/NC(=S)NCc2ccccc2)c(O)c1` is > 26 µM (inactive); for `Cc1ccc(O)c(NC(=S)NC(=O)c2ccc(-c3ccc(Cl)cc3)o2)c1` it is > 26 µM (inactive). Consider `Cc1cccc(/C=C/C(=O)c2ccc([N+](=O)[O-])o2)c1`, for which the AC50 is > 26 µM (inactive). In the case of `Cc1ccccc1-c1cc(C(=O)Nc2sc(C)c(C)c2C(N)=O)c2ccccc2n1`, the AC50 was > 26 µM (inactive). For the compound `Cc1cccc(CSC(Nc2ccc(F)cc2)=C(C#N)C#N)c1`, the AC50 was > 26 µM (inactive). Under `CCCN(CCC)c1nc(-c2ccccn2)nc2ccccc12` stands > 26 µM (inactive); under `Oc1ccccc1/C=N/Nc1nccnc1Cl`, > 26 µM (inactive). Under `O=C(Nc1ccc(-c2noc(-c3cccs3)n2)cc1)c1cccnc1` stands > 26 µM (inactive); under `CC(C)(C)Nc1nc(-c2ccccn2)nc2ccccc12`, > 26 µM (inactive). Under `O=[N+]([O-])c1cc(/C=N/Nc2nc3ccccc3[nH]2)c(O)cc1O` stands > 26 µM (inactive). Regarding `O=C(N/N=C/c1ccc([N+](=O)[O-])o1)c1cc2ccccc2o1`, the AC50 was > 26 µM (inactive). With `COc1ccc(/C=N/Nc2cc(C)nc3ccc(OC)cc23)c(OC)c1`, the AC50 is 10.7 µM. Under `COc1cc(/C=C(/C(=O)c2cccs2)c2nc3ccccc3[nH]2)ccc1O` stands > 26 µM (inactive); under `CC(C)(C)c1cc[n+](C2=C([O-])c3ccccc3C(=O)/C2=N\S(=O)(=O)c2ccccc2)cc1`, > 26 µM (inactive).

For the compound `Cc1nc(NCCc2ccc(S(N)(=O)=O)cc2)c2c(C)c(C)sc2n1`, the AC50 was > 26 µM (inactive).

As to `CCCC(=O)NC(c1ccc(N(C)C)cc1)c1ccc2cccnc2c1O` (centres undefined), the AC50 is > 26 µM (inactive). Take `Cc1nn(C)c(C)c1CN(Cc1nc(CCC(C)C)no1)C(C)C`: the AC50 was > 26 µM (inactive). Under `COC(=O)c1sccc1S(=O)(=O)Nc1ccc(N2CCCCC2)cc1` stands > 26 µM (inactive); under `COc1ccc(-n2cc(-c3ccc(C)cc3)[n+]3c2SCC3)cc1`, > 26 µM (inactive); under `C=CC[n+]1c(/C=C2\C=Cc3cc(C)ccc3N2CC)ccc2ccccc21`, > 26 µM (inactive). As for `CCOC(=O)CC1CCCCN1C(=O)c1cc(COc2cccc3cnccc23)on1` (centres undefined), the AC50 is > 26 µM (inactive). The figure for `c1ccc2c(NCCCN3CCOCC3)c3ccccc3nc2c1` is 7.15 µM.

On to `COc1ccc(C)cc1Nc1n[n+](-c2ccccc2)c(-c2c(OC)ccc3ccccc23)s1`, for which the AC50 was > 26 µM (inactive). Under `Cc1ccc(C)c(NC(=O)/C(C#N)=C/c2cn(CC(=O)NCc3ccco3)c3ccccc23)c1` stands > 26 µM (inactive); under `OCCN1CCN(C2Cc3cc(Cl)ccc3Sc3ccc(Cl)cc32)CC1` (centres undefined) (tested in a mixture with another compound), > 26 µM (inactive).

Regarding `Cc1ccc(N(CC(=O)Nc2cc(C)cc(C)c2)S(=O)(=O)c2c(C)noc2C)cc1`, the AC50 is > 26 µM (inactive). The figure for `N#Cc1c2ccc([N+](=O)[O-])cc2[n+]([O-])n1-c1ccccc1` is > 26 µM (inactive). Under `N=c1ccn(Cc2ccc(Cl)cc2Cl)cc1` stands > 26 µM (inactive); under `COc1ccc(C(=O)CSc2n[nH]c(=O)n2Cc2ccco2)cc1`, > 26 µM (inactive). For `CCOc1ccc(-n2c(-c3ccc(OC)cc3)c[n+]3c2CCCCC3)cc1`, the AC50 is > 26 µM (inactive). The figure for `CC(=O)c1ccc(N2CCN(S(=O)(=O)c3ccc4c(c3)CC(C)N4C(C)=O)CC2)cc1` (centres undefined) is > 26 µM (inactive); for `O=[N+]([O-])c1ccccc1-c1cc(-c2ccccc2)cc(-c2ccccc2)[n+]1Cc1ccccc1Cl` it is > 26 µM (inactive); for `Cc1ccc(NC2=C/C(=N\S(=O)(=O)c3cccs3)c3ccccc3C2=O)c(C)c1` it is > 26 µM (inactive).

In the case of `Cc1ccc(C2CC(c3cccc(C)c3)n3nc(N)nc3N2)cc1` (centres undefined), the AC50 is > 26 µM (inactive). As for `O=C1C(Nc2ccccc2)=C/C(=N/S(=O)(=O)c2cccs2)c2ccccc21`, the AC50 was > 26 µM (inactive).

On to `O=C(N/N=C/c1cc(Br)c(Br)s1)c1ccncc1`, for which the AC50 is > 26 µM (inactive).

Take `COc1ccc(C(CCN2CCCCC2)c2c(OC)cc(OC)c3c(-c4ccccc4)cc(=O)oc23)cc1` (centres undefined): the AC50 was 16.6 µM.

With `Cc1nc2cc(-c3ccccc3)sc2c(=O)n1N`, the AC50 is > 26 µM (inactive). Under `CC(C)(C)CN1CCC(Oc2cccc(C(=O)NCCCOc3cccnc3)c2)CC1` stands > 26 µM (inactive); under `CN(Cc1cccnc1)C(=O)c1cc(COc2ccc3ncccc3c2)on1`, > 26 µM (inactive); under `FC(F)Sc1ccc(N=C2NN=C(c3ccc4c(c3)OCCO4)CS2)cc1`, > 26 µM (inactive). The figure for `O=C(Nc1nc(-c2ccccn2)cs1)c1cc(Cl)ccc1[N+](=O)[O-]` is > 26 µM (inactive). Take `N=c1c2c(-c3ccccc3)c(-c3ccccc3)n(Cc3ccco3)c2ncn1CCCN1CCOCC1`: the AC50 was 16.7 µM.

Turning to `C/C(=N\NC(=O)c1c(C)nc2ccccn12)c1ccc(O)cc1O`, the AC50 was > 26 µM (inactive). The figure for `Cc1cccc(Cn2nnc3c2C(=O)c2ccccc2C3=O)c1` is > 26 µM (inactive); for `CC(=O)NC(c1cccs1)c1cc([N+](=O)[O-])c2cccnc2c1O` (centres undefined) it is > 26 µM (inactive). In the case of `O=C(N/N=C/c1cc(Br)c(O)c(Br)c1O)c1ccc2c(c1)OCCO2`, the AC50 is > 26 µM (inactive).

These data come from PubChem BioAssay AID463206 (Broad Institute, 2010).
